# Assay results reported in patent US11434227B2, “Broad spectrum antibacterial activity of novel bisbenzimidazoles targeting topoisomerase IA and the synergistic composition of bisbenzimidazole with efflux pump inhibitors against pathogenic bacteria” (Jawaharlal Nehru University (JNU), priority 2016, dated 2022).
# What was measured:
# [1] = molecular target: E. coli Topoisomerase IA (EcTopoIA) (Escherichia coli, UniProt P06612); conditions: reference 5; cited from earlier work
# E. coli 555^R = assay: Susceptibility (MIC, PAE, MBC), broth microdilution
# Experimental: (§1) MICs were determined by the broth microdilution method according to CLSI methods (Clinical and Laboratory Standards Institute, 2005). Inoculants were incubated at 37° C. on cation adjusted Mueller Hinton (MH) Broth for 18 to 24 h. Compound were dissolved in media to 10 doubling dilutions from 128 to 0.125 μg/mL. All the bacterial strains were grown in 96 well plate with low evaporation lid (Falcon, Becton Dickinson) in presence of derivatives of benzimidazoles at 0.125, 0.25, 0.5, 1, 2, 4, 8, 16, 32, 64, 128, 256 μg/mL concentrations. […] Plates were read by Tecan Micro-plate Reader at 600 nm.
# E. coli 59^R = assay: as above
# Experimental: as §1
# E. coli DH5α = assay: as above
# Experimental: as §1
# E. coli 72^R = assay: as above; conditions: Escherichia coli
# Experimental: as §1
# E. coli Topoisomerase IA = E. coli Topoisomerase IA (Escherichia coli, UniProt P06612); assay: Topoisomerase IA cleavage and religation assay; assay type: biochemical; conditions: 0.12-2 μM DMA, 5′-32P labeled ssDNA
# E. coli Topoisomerase IA, sequence (P06612 whole entry): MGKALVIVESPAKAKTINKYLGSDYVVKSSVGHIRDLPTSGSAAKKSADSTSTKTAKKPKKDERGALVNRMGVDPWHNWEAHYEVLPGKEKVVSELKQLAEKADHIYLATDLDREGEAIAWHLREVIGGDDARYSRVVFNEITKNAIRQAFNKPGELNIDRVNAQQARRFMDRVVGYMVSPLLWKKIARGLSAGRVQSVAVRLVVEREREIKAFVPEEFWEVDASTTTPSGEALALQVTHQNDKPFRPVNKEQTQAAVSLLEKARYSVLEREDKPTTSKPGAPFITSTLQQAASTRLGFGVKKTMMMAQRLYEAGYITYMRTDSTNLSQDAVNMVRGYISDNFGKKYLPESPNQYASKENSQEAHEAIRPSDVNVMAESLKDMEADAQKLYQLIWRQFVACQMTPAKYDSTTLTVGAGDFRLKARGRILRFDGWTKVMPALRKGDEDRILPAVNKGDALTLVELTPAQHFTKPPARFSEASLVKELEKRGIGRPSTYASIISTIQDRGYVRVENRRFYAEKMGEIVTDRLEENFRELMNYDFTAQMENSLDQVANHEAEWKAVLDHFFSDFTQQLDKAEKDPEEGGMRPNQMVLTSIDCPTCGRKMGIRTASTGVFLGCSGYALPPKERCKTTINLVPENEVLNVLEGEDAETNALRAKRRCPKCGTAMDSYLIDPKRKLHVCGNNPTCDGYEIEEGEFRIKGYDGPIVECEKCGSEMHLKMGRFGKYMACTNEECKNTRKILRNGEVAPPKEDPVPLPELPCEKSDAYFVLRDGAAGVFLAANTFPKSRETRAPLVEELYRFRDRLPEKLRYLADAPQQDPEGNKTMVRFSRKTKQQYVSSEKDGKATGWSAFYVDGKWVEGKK
# Experimental: Compounds at different concentrations were added to DNA cleavage reaction mixtures (20 μl) containing 50 mM TrisHCl, pH 7.5, 2 mM MgCl2 0.2 mM DTT, 0.5 mM EDTA, 30 μg/ml BSA, 25 μg/ml of pHOT1 having specific site for DNA, 40 units of E. coli Topoisomerase IA and ligands was incubated at 37° C. for 30 min. The reactions was then terminated by adding 1% SDS and 150 μg/m Proteinase K, and incubated further for 1 h at 37° C. The DNA samples was electrophoresed in 1% agarose gel in 0.5×TBE. Ethidium bromide at a finial concentration of 0.5 μg/ml was included in the gel to resolve slowly migrating nicked product (cleavable complex) from the supercoiled DNA molecules.
# E. coli 85^R = assay: Susceptibility (MIC, PAE, MBC), broth microdilution
# Experimental: as §1
# E. coli 451^R = assay: as above
# Experimental: as §1
# [2] = system: Escherichia coli (ATCC 25922); assay: as above
# Experimental: as §1
# E. coli 401^R = assay: as above
# Experimental: as §1
# E. coli 360^R = assay: as above
# Experimental: as §1
# E. coli 132^R = assay: as above
# Experimental: as §1
# E. coli 81^R = assay: as above
# E. coli 118^R = assay: as above
# E. coli 151^R = assay: as above
# Experimental: as §1
# E. coli Topoisomerase IA (EcTopoIA), sequence (P06612 whole entry): as above
smiles,measurement,setting,value
"COc1ccc(-c2nc3cc(-c4nc5ccc(N6CCN(C)CC6)cc5[nH]4)ccc3[nH]2)cc1OC [DMA, 3,4-Dimethoxyphenyl bisbenzimidazole, reference compound]",target specificity,[1],"specific Escherichia coli Topoisomerase IA poison inhibitor over Gyrase, Human Topoisomerase I and Human Topoisomerase II"
same,PAE,E. coli 555^R; E. coli 555^R,24 h
same,MBC,E. coli 555^R; Escherichia coli,64 µM
same,MIC,E. coli 555^R; Escherichia coli,15 µg/mL
same,PAE,E. coli 59^R; E. coli 59^R,1.6 h
same,MBC,E. coli 59^R; Escherichia coli,32 µM
same,MIC,E. coli 59^R; Escherichia coli,7.49 µg/mL
same,PAE,E. coli DH5α; E. coli DH5α,20.8 h
same,MBC,E. coli DH5α; Escherichia coli,16 µM
same,MIC,E. coli DH5α; Escherichia coli,3.74 µg/mL
same,MBC,E. coli 72^R,16 µM
same,MIC,E. coli 72^R,3.74 µg/mL
same,DNA cleavage product formed by EcTopo1A,E. coli Topoisomerase IA,increased the DNA cleavage product formed by EcTopo1A
same,PAE,E. coli 85^R; E. coli 85^R,24 h
same,MBC,E. coli 85^R; Escherichia coli,16 µM
same,MIC,E. coli 85^R; Escherichia coli,3.74 µg/mL
same,PAE,E. coli 451^R; E. coli 451^R,22 h
same,MBC,E. coli 451^R; Escherichia coli,16 µM
same,MIC,E. coli 451^R; Escherichia coli,3.74 µg/mL
same,PAE,[2]; ATCC 25922,22.3 h
same,MBC,"[2]; Escherichia coli, ATCC25922",64 µM
same,MIC,"[2]; Escherichia coli, ATCC25922",15 µg/mL
same,PAE,E. coli 401^R; E. coli 401^R,16 h
same,MBC,E. coli 401^R; Escherichia coli,64 µM
same,MIC,E. coli 401^R; Escherichia coli,15 µg/mL
same,PAE,E. coli 360^R; E. coli 360^R,24 h
same,MBC,E. coli 360^R; Escherichia coli,16 µM
same,MIC,E. coli 360^R; Escherichia coli,3.74 µg/mL
same,PAE,E. coli 132^R; E. coli 132^R,24 h
same,MBC,E. coli 132^R; Escherichia coli,32 µM
same,MIC,E. coli 132^R; Escherichia coli,7.49 µg/mL
same,PAE,E. coli 81^R; E. coli 81^R,23.6 h
same,MBC,E. coli 81^R; Escherichia coli,32 µM
same,MIC,E. coli 81^R; Escherichia coli,7.49 µg/mL
same,PAE,E. coli 118^R; E. coli 118^R,24 h
same,MBC,E. coli 118^R; Escherichia coli,16 µM
same,MIC,E. coli 118^R; Escherichia coli,3.74 µg/mL
same,PAE,E. coli 151^R; E. coli 151^R,21.6 h
same,MBC,E. coli 151^R; Escherichia coli,32 µM
same,MIC,E. coli 151^R; Escherichia coli,7.49 µg/mL
